Results taken from patent publication US10206907B2, “Compounds useful for the treatment of degenerative and inflammatory diseases” (GALAPAGOS NV, priority 2008, dated 2019).
pEC50, pIC50: −log10 of the molar value. Where two headings read alike, the source gives them in different places.

Key:
[1] = test system: JAK-STAT signalling in HeLa cells; assay: JAK-STAT signalling assay (OSM-triggered pSTAT1(2)-luciferase reporter in HeLa cells); assay type: cell-based; conditions: Homo sapiens; HeLa cells, OSM-triggered pSTAT1(2)-luciferase reporter; read-out: STAT signalling EC50
Procedure, shortened: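 Read-out is oncostatin M–driven pSTAT1(2)-luciferase activity, corrected by co-transfected LacZ β-galactosidase, in transiently transfected HeLa cells cultured overnight at 37 °C, 10% CO2. Inhibition percentages against positive and negative controls were plotted across doses to derive EC50.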

[2] = target: Recombinant human JAK2 catalytic domain (Homo sapiens (Human), UniProt O60674); assay: JAK2 inhibition assay; assay type: biochemical
Recombinant human JAK2 catalytic domain, sequence (O60674 808-1132): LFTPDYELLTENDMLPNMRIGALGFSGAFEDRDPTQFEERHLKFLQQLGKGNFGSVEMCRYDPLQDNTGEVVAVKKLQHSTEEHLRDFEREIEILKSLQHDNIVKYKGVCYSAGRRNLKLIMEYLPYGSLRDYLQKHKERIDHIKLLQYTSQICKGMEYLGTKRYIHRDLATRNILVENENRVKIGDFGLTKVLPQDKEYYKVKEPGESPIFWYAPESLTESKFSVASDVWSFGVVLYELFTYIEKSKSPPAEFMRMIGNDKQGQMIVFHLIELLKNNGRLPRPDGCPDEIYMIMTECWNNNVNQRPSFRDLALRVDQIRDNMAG
Procedure, shortened: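 Activity was taken as vehicle cpm minus cpm with 10 μM staurosporine, and inhibition was expressed on that scale. Incubation was 90 min at 30 °C, followed by acid quench, phosphoric acid washes and Microscint counting. Compounds were tested as dose series to obtain IC50.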

MMP13 in SW1353 cells = assay: OSM/IL-1β signaling assay (MMP13 levels in SW1353 cells); assay type: cell-based; conditions: Homo sapiens; SW1353 cells, OSM and IL-1β triggered, MMP13 levels 48 hours after triggering; read-out: MMP13 EC50;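 further: secreted MMP13 captured by antibody, activated with APMA and its activity read by fluorescence, inhibition scaled between vehicle-treated triggered wells (0%) and untriggered wells (100%)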
[3] = Microsomal stability, rat liver microsomes; assay type: in vitro ADME; conditions: percentage of compound remaining after 60 minutes, 3 μM compound
Procedure, shortened: (§1)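 Percent parent remaining after 60 min was determined by LCMS against a time-zero sample quenched before microsome addition. Incubations ran at 37°C with liver microsomes and a G6PDH-based NADPH-regenerating cofactor mix. Quench was MeOH or ACN (1:1).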

[4] = target: Recombinant human JAK1 catalytic domain (Homo sapiens (Human), UniProt P23458); assay: JAK1 inhibition assay; assay type: biochemical
Recombinant human JAK1 catalytic domain, sequence (P23458 850-1154): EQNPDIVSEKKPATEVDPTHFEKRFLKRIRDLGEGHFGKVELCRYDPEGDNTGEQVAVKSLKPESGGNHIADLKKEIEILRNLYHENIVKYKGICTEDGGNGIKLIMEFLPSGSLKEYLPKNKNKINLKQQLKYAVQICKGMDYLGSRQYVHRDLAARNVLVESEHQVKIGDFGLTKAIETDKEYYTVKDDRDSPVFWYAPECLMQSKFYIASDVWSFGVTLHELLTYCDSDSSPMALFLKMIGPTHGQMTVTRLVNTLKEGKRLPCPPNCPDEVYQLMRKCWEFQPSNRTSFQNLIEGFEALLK
Procedure, shortened: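 IC50 values come from dose-response series, with each point expressed as percent inhibition of cpm. Vehicle sets full activity and 10 μM staurosporine sets background. Incorporated radioactivity counted by scintillation after washing with 75 mM phosphoric acid.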

[5] = target: Recombinant human TYK2 catalytic domain (Homo sapiens (Human), UniProt P29597); assay: TYK2 inhibition assay; assay type: biochemical
Recombinant human TYK2 catalytic domain, sequence (P29597 871-1187): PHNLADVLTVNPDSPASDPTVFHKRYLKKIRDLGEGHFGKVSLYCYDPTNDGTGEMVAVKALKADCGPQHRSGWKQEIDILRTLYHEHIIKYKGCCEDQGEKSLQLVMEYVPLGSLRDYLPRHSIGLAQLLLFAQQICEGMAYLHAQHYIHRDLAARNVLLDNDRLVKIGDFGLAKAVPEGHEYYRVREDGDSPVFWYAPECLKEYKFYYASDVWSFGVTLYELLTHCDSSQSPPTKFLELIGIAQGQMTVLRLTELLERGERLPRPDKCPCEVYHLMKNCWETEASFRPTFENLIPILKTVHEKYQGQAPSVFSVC
Experimental: After 90 min at 30° C., reactions were stopped by adding of 25 μL/well of 150 mM phosphoric acid. […] Plates were washed 6 times with 300 μL per well of a 75 mM phosphoric acid solution and the bottom of the plates was sealed. 40 μL/well of Microscint-20 was added, the top of the plates was sealed and readout was performed using the Topcount (Perkin Elmer). Kinase activity was calculated by subtracting counts per minute (cpm) obtained in the presence of a positive control inhibitor (10 μM staurosporine) from cpm obtained in the presence of vehicle. The ability of a test compound to inhibit this activity was determined as: Percentage inhibition=((cpm determined for sample with test compound present−cpm determined for sample with positive control inhibitor) divided by (cpm determined in the presence of vehicle−cpm determined for sample with positive control inhibitor))*100%.
Dose dilution series were prepared for the compounds enabling the testing of dose-response effects in the TYK2 assay and the calculation of the IC50 for each compound.

[6] = Microsomal stability, human liver microsomes; assay type: in vitro ADME; conditions: percentage of compound remaining after 60 minutes, 3 μM compound
Procedure, shortened: as §1

[7] = target: Recombinant human JAK3 catalytic domain (Homo sapiens (Human), UniProt P52333); assay: JAK3 inhibition assay; assay type: biochemical; conditions: semi-quantitative score
Recombinant human JAK3 catalytic domain, sequence (P52333 781-1124): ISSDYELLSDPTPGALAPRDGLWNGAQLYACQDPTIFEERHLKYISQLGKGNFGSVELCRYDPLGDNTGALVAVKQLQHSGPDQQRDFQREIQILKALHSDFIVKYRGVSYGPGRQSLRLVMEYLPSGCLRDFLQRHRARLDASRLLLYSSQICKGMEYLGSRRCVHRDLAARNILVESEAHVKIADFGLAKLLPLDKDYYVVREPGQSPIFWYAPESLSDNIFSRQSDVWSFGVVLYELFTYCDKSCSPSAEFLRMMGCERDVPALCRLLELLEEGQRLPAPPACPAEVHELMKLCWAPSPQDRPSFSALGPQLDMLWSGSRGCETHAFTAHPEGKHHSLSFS

[8] = Caco2 permeability (bi-directional); assay type: in vitro ADME, human; conditions: human, pH 7.4
Procedure, shortened: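 Compound concentrations in both chambers were measured by LC-MS/MS after 1 h incubation at 37 °C on an orbital shaker. Efflux ratio is PappB>A over PappA>B. Lucifer Yellow (50 μM in donor) confirmed layer integrity, with permeability of ≤100 nm/s required.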

Row | pEC50 [1] | pIC50 ([2]; semi-quantitative score) | pEC50 (MMP13 in SW1353 cells) | Microsomal Stability Rat (%) [3] | pIC50 ([4]; semi-quantitative score) | pIC50 ([5]; semi-quantitative score) | Microsomal Stability Human (%) [6] | pIC50 [7] | Papp A→B at 1 h, 10 µM ([8]; Caco-2, apical to basolateral, read-out: Papp (A2B)) [×10⁻⁶ cm/s] | efflux ratio at 1 h, 10 µM ([8]; Caco-2, ratio of PappB>A/PappA>B) | Compound | pIC50 [2] | pIC50 [4] | pIC50 [5]
1 | < 6.00 | 6.30 to 7.00 | < 6.00 | * (* 0-25) | > 7.00 | < 6.00 | * (* 0-25) | < 6.00 | – | – | O=C(Nc1nc2cccc(-c3ccc(Oc4ccccc4)cc3)n2n1)C1CC1 [Compound 46, N-(5-(4-phenoxyphenyl)-[1,2,4]triazolo[1,5-a]pyridin-2-yl)cyclopropanecarboxamide] | – | – | –
2 | < 6.00 | > 7.00 | < 6.00 | * (* 0-25) | > 7.00 | < 6.00 | ** (** 26-50) | 6.30 to 7.00 | – | – | Cc1cc(COc2ccc(-c3cccc4nc(NC(=O)C5CC5)nn34)cc2)nn1C [Compound 62] | – | – | –
3 | – | 6.00 to 6.30 | – | – | 6.30 to 7.00 | < 6.00 | – | < 6.00 | – | – | CN1CCN(c2ccc(-c3cccc4nc(NC(=O)C5CC5)nn34)cc2)CC1 [Compound 1, N-(5-(4-(4-methylpiperazin-1-yl)phenyl)-[1,2,4]triazolo[1,5-a]pyridin-2-yl)cyclopropanecarboxamide] | – | – | –
4 | < 6.00 | 6.30 to 7.00 | 6.00 to 6.30 | * (* 0-25) | > 7.00 | < 6.00 | * (* 0-25) | < 6.00 | – | – | O=C(Nc1nc2cccc(-c3ccc(C(=O)N4CCc5ccccc5C4)cc3)n2n1)C1CC1 [Compound 58] | – | – | –
5 | 6.00 to 6.30 | > 7.00 | < 6.00 | * (* 0-25) | > 7.00 | < 6.00 | * (* 0-25) | 6.00 to 6.30 | – | – | O=C(Nc1nc2cccc(-c3ccc4c(ccn4Cc4ccccc4)c3)n2n1)C1CC1 [Compound 121, Cyclopropanecarboxylic Acid [5-(1-benzyl-1H-indol-5-yl)-[1,2,4]triazolo[1,5-a]pyridin-2-yl]-amide] | – | – | –
6 | < 6.00 | 6.30 to 7.00 | < 6.00 | * (* 0-25) | > 7.00 | < 6.00 | **** (**** 76-100) | < 6.00 | – | – | O=C(NCc1ccccc1)c1ccc(-c2cccc3nc(NC(=O)C4CC4)nn23)cc1 [Compound 56, N-benzyl-4-(2-(cyclopropanecarboxamido)-[1,2,4]triazolo[1,5-a]pyridin-5-yl)benzamide] | – | – | –
7 | 6.30 to 7.00 | > 7.00 | – | ** (** 26-50) | > 7.00 | 6.30 to 7.00 | ** (** 26-50) | 6.30 to 7.00 | 4.1 | 11.5 | O=C(Nc1nc2cccc(-c3ccc(C(=O)N4CCC(O)(Cc5ccccc5)CC4)cc3)n2n1)C1CC1 [Compound 156, N-(5-(4-(4-benzyl-4-hydroxypiperidine-1-carbonyl)phenyl)-[1,2,4]triazolo[1,5-a]pyridin-2-yl)cyclopropanecarboxamide] | – | – | –
8 | < 6.00 | > 7.00 | < 6.00 | ** (** 26-50) | > 7.00 | < 6.00 | ** (** 26-50) | < 6.00 | – | – | O=C(Nc1nc2cccc(-c3ccc(OCC4CCC4)cc3)n2n1)C1CC1 [Compound 39, N-(5-(4-(cyclobutylmethoxy)phenyl)-[1,2,4]triazolo[1,5-a]pyridin-2-yl)cyclopropanecarboxamide] | – | – | –
9 | < 6.00 | > 7.00 | < 6.00 | ** (** 26-50) | > 7.00 | 6.30 to 7.00 | **** (**** 76-100) | < 6.00 | – | – | O=C(Nc1nc2cccc(-c3ccc(NS(=O)(=O)c4ccc(F)cc4)cc3)n2n1)C1CC1 [Compound 33, N-(5-(4-(4-fluorophenylsulfonamido)phenyl)-[1,2,4]triazolo[1,5-a]pyridin-2-yl)cyclopropanecarboxamide] | – | – | –
10 | < 6.00 | > 7.00 | < 6.00 | *** (*** 51-75) | > 7.00 | 6.30 to 7.00 | **** (**** 76-100) | < 6.00 | – | – | O=C(Nc1nc2cccc(-c3ccc(NS(=O)(=O)c4ccccc4F)cc3)n2n1)C1CC1 [Compound 54, N-(5-(4-(2-fluorophenylsulfonamido)phenyl)-[1,2,4]triazolo[1,5-a]pyridin-2-yl)cyclopropanecarboxamide] | – | – | –
11 | – | – | – | **** (**** 76-100) | 6.30 to 7.00 | < 6.00 | **** (**** 76-100) | < 6.00 | – | – | O=C(Nc1ccccc1)c1ccc(-c2cccc3nc(NC(=O)C4CC4)nn23)cc1 [Compound 43, 4-(2-(cyclopropanecarboxamido)-[1,2,4]triazolo[1,5-a]pyridin-5-yl)-N-phenylbenzamide] | – | – | –
12 | < 6.00 | 6.30 to 7.00 | < 6.00 | * (* 0-25) | > 7.00 | < 6.00 | *** (*** 51-75) | 6.00 to 6.30 | – | – | O=C(COc1ccc(-c2cccc3nc(NC(=O)C4CC4)nn23)cc1)Nc1cccc(F)c1 [Compound 116, N-(5-(4-(2-(3-fluorophenylamino)-2-oxoethoxy)phenyl)-[1,2,4]triazolo[1,5-a]pyridin-2-yl)cyclopropanecarboxamide] | – | – | –
13 | < 6.00 | 6.30 to 7.00 | < 6.00 | * (* 0-25) | > 7.00 | < 6.00 | * (* 0-25) | < 6.00 | – | – | Cc1noc(C)c1COc1ccc(-c2cccc3nc(NC(=O)C4CC4)nn23)cc1 [Compound 49, N-(5-(4-((3,5-dimethylisoxazol-4-yl)methoxy)phenyl)-[1,2,4]triazolo[1,5-a]pyridin-2-yl)cyclopropanecarboxamide] | – | – | –
14 | < 6.00 | > 7.00 | < 6.00 | * (* 0-25) | > 7.00 | < 6.00 | ** (** 26-50) | 6.30 to 7.00 | – | – | Cc1cc(COc2ccc(-c3cccc4nc(NC(=O)C5CC5)nn34)cc2)n(C)n1 [Compound 50] | – | – | –
15 | < 6.00 | 6.30 to 7.00 | < 6.00 | ** (** 26-50) | > 7.00 | < 6.00 | * (* 0-25) | < 6.00 | – | – | O=C(N[C@H]1CCN(Cc2ccccc2)C1)c1ccc(-c2cccc3nc(NC(=O)C4CC4)nn23)cc1 [Compound 119, (S)-N-(1-benzylpyrrolidin-3-yl)-4-(2-(cyclopropanecarboxamido)-[1,2,4]triazolo[1,5-a]pyridin-5-yl)benzamide] | – | – | –
16 | 6.00 to 6.30 | 6.30 to 7.00 | 6.00 to 6.30 | ** (** 26-50) | > 7.00 | < 6.00 | ** (** 26-50) | – | – | – | O=C(Nc1nc2cccc(-c3ccc(OCC4CCCCC4)cc3)n2n1)C1CC1 [Compound 41, N-(5-(4-(cyclohexylmethoxy)phenyl)-[1,2,4]triazolo[1,5-a]pyridin-2-yl)cyclopropanecarboxamide] | – | – | –

Row | Compound | pEC50 [1] | pIC50 ([2]; semi-quantitative score) | pEC50 (MMP13 in SW1353 cells) | Microsomal Stability Rat (%) [3] | pIC50 ([4]; semi-quantitative score) | pIC50 ([5]; semi-quantitative score) | Microsomal Stability Human (%) [6] | pIC50 [7] | Papp A→B at 1 h, 10 µM ([8]; Caco-2, apical to basolateral, read-out: Papp (A2B)) [×10⁻⁶ cm/s] | efflux ratio at 1 h, 10 µM ([8]; Caco-2, ratio of PappB>A/PappA>B) | pIC50 [2] | pIC50 [4] | pIC50 [5]
17 | O=C(Nc1nc2cccc(-c3ccc(OCc4ccccc4)nc3)n2n1)C1CC1 [Compound 57, Cyclopropanecarboxylic Acid [5-(6-benzyloxy-pyridin-3-yl)-[1,2,4]triazolo[1,5-a]pyridin-2-yl]-amide] | < 6.00 | – | < 6.00 | ** (** 26-50) | – | – | ** (** 26-50) | 6.00 to 6.30 | – | – | > 7.00 | > 7.00 | < 6.00
